US9770451B2, “Composition including ATM inhibitor for reducing cellular senescence and use of the composition” (Samsung Electronics Co., Ltd., priority 2014, dated 2017)

How the values were obtained:
[1] = tested on: senescent fibroblasts (passage 37); test: Cell proliferation and formation of cell colonies (crystal violet staining); type: cell-based, human; details: among 0.1, 0.5 and 2 μM
Procedure: A human fibroblast cell line was inoculated into a Dulbecco's Modified Eagle's medium (DMEM) containing 10% fetal bovine serum (FBS), 100 units/ml of penicillin, and 100 μg/ml of streptomycin (wherein these two antibiotics were purchased from Gibro-BRL, Grand Island, N.Y.), and then, cultured in a 5% CO2 incubator at a temperature of 37° C. The fibroblast cell line (i.e., M11 strain) was a cell line derived from the foreskin of a child. When the cells were grown to about 85% confluency in a plate, the cells were subjected to subculture. The early subculture was carried out at a split ratio of 1:4, and the late subculture was carried out at a split ratio of 1:2. When the cell doubling time was 14 days, the cells were considered to be senescent fibroblasts (passages 35 to 37).
To determine the optimal concentration upon the treatment with an ATM-kinase inhibitor KU-60019 (SELLECKCHEM, S1570, salt), the senescent fibroblasts (passage 37) were inoculated into each well of a 6-well plate at a concentration of 2,000 cells/well, and then, KU-60019 was added to each well of the 6-well plate ([…]). In addition, as a negative control group, the cells were cultured under the same conditions as described above, except that a medium used herein contained a dimethyl sulfoxide (DMSO) (0.05 (v/v) %) medium. […]

[2] = tested on: C57BL/6J mice; test: Wound healing assay (full-thickness punch-biopsy wounds); type: in vivo, mouse; details: for closure difference between KU-60019-treated and DMSO-treated wounds: day 7; for mean wound closure: day 7, topical 5 μM in 30% Pluronic gel daily
Procedure: To further test whether ATMi can promote cutaneous wounding healing in young (3 months old) and old (19 months old) male mice (C57BL/6J mice), four full-thickness punch-biopsy wounds (8 mm in diameter) were created on the dorsal skin of mouse (5 mice/experimental group), drug at a concentration of 5 μM KU-60019 in 30% Pluronic gel (Pluronic F-127 Sigma, P2443-1 KG) 0.5 mL was applied to wounds every day, and then covered the wounds with Telfa sponges (Kendall Health Care, Mansfield, Mass., USA). All animal studies were reviewed and approved by the […] Animal Care and Use Committee of SKKU School of Medicine (SUSM). SUSM is an Association for Assessment and Accreditation of Laboratory Animal Care international accredited facility and abides by the Institute for Laboratory Animal Research guide. Wounds were photographed for 10 days. Immunohistochemistry analyses were performed on 5 μm paraffin embedded sections as described previously (Lin et. al., 2004. Developmental Biology 270, 474-486). Primary antibodies used for immunohistochemistry were mouse anti-α-smooth muscle actin (Sigma, F3777-2ML, 1:500), and mouse anti-PCNA (Santa Cruz Biotechnology, SC-56, 1:500). Secondary antibodies used for immunohistochemistry were EnVision™ Detection System (DAKO, K5007). Masson-Trichrome staining was performed according to the manufacturer's instructions (Polysciences Inc., Warrington Pa., USA).
To further test whether KU-60019 can promote cutaneous wounding healing in young (3 months old) and old (19 months old) mice, we created full-thickness punch-biopsy wounds 8 mm in diameter on the dorsal skin of 10 mice (5 mice/each group), applied to the wounds at a concentration of 5 μM KU-60019 in 30% Pluronic gel (Pluronic F-127 Sigma, P2443-1 KG), and then covered the wounds with Telfa sponges (Kendall Health Care, Mansfield, Mass., USA). Pluronic F-127 is a hydrogel widely used in pharmaceuticals as a drug delivery vehicle for a variety of soluble mediators, including antibodies, cytokines, and growth factors. […] Only 13.5% closure difference was shown between KU-60019-treated and DMSO-treated wounds. […] 20% closure difference was shown between KU-60019-treated and DMSO-treated wounds. […] KU-60019-treated wounds are capable of complete and efficient closure.

[3] = tested on: senescent fibroblasts (passage 37); test: Soft agar assay for abnormal (cancer-like) proliferation; type: cell-based, human; details: 0.5 μM, 4 weeks; 293T cells formed colonies
Procedure: In addition, to confirm whether the cells proliferated by the culture proliferate abnormally, for example, proliferate like cancer cells, a soft agar assay was carried out. First, the DMEM medium containing 10% FBS was mixed with a 1.6% agar medium at a ratio of 1:1, so as to prepare a medium containing 0.8% agar formulation to coat the bottom of each well of a 6-well plate. […] As a control group, a 293T cell line (ATCC® CRL-11268™) from human embryonic kidney was used. […] The same procedure applies similarly to the remaining images b, c, and d. In FIG. 3, HDF M11 p37 refers to a human dermal fibroblast M11 strain, which is a sub-cultured fibroblast (passage 37). In FIG. 3, KU-60019-KU-60019 refers to a process of continuously adding KU-60019 to a medium and culturing for 28 days; KU-60019-DMSO refers to a process of adding KU-60019 to a medium and culturing for 14 days, removing KU-60019, and then, culturing the cells in the absence of KU-60019 for another 14 days; DMSO-DMSO refers to a condition where KU-60019 is not added at all and the cells cultured for 28 days. The 293T cells were cultured under the same condition as DMSO-DMSO, and then, applied to the soft agar assay.

C[C@@H]1CN(CC(=O)Nc2ccc3c(c2)Cc2cccc(-c4cc(=O)cc(N5CCOCC5)o4)c2S3)C[C@H](C)O1 [KU-60019, 2-((2S,6R)-2,6-dimethylmorpholino)-N-(5-(6-morpholino-4-oxo-4H-pyran-2-yl)-9H-thioxanthen-2-yl)acetamide]
most effective concentration selected [1]: 0.5 µM | closure difference between KU-60019-treated and DMSO-treated wounds ([2]; old mouse (19 months old)): 20% | mean wound closure ([2]; old mouse (19 months old), control 49.4%): 69.4% | closure difference between KU-60019-treated and DMSO-treated wounds ([2]; young mouse (3 months old)): 13.5% | mean wound closure ([2]; young mouse (3 months old), control 74.1%): 87.6% | colony formation in soft agar [3]: colonies were not formed
